Measured values reported in patent US12435095B2, “Substituted morpholines as ATR kinase inhibitors” (Shanghai Annova Biotechnology Co., Ltd., priority 2021, dated 2025).
Read-outs that look alike come from different tables or passages of the source.

Tested on: human colon cancer LoVo cells
Assay: Cell proliferation inhibition assay (CellTiter-Glo)
Format: cell-based
Conditions: for IC50 / Emax: Homo sapiens; for IC50: read-out: LoVo IC50; for Emax: read-out: Max Inhibition
Text: Experimental method: A CellTiter-Glo cell viability assay kit was used to test the inhibitory effect of the compounds on the in vitro proliferation of human colon cancer LoVo cells.
Experimental materials: LoVo cells (ATCC, Cat. No. CCL-29); F-12K medium (Invitrogen, Cat. No. 21127-022); fetal bovine serum (Biological Industries, Cat. No. 04-002-1A); GlutaMAX (Gibco, Cat. No. 35050-061); 0.25% trypsin-EDTA (Invitrogen, Cat. No. 25200-072); CellTiter-Glo kit (Promega, Cat. No. G7558).
Experimental procedure: (1) F-12K medium, fetal bovine serum and GlutaMAX were formulated into a complete medium for culturing LoVo cells; (2) well-grown LoVo cells were taken, digested with trypsin and transferred to a centrifuge tube, and centrifuged; the supernatant was discarded, and cells were resuspended by adding a fresh medium and counted by a Vi-CELL XR cell counter; the density of the cell suspension was adjusted to 25,000 to 30,000 cells/mL, and the cell suspension was added at 100 μL/well in a 96-well cell culture plate, while a blank control group was set up with no cells added, and the cell culture plate was incubated in a carbon dioxide incubator overnight; (3) a DMSO solution of the compound to be tested was dispensed into the above 96-well cell culture plate using an HP D300 ultra-micro sampler, with 0.5 μL of the solution per well and 10 concentrations for each compound (3× dilution), while a DMSO control group with no compound added was set up, and the plate was continued to be incubated in a carbon dioxide incubator for 96 hours; (4) the cell culture plate was taken out and equilibrated to room temperature, with 100 μL of a CellTiter-Glo reagent added to each well, and then the plate was kept away from light, shaken for 10 minutes and then incubated for 10 minutes; (5) the cell culture plate was put into EnSpire for plate reading, and the luminescence value RLU was recorded.
Data processing: (1) The inhibition rate was calculated from the luminescence values: “RLUDMSO” is the luminescence value of the DMSO control group without compound, “RLUblank” is the luminescence value of the blank control group without cells, and “RLUcompound” is the luminescence value of the compound test group, and the inhibition rate=[1−(RLUcompound−RLUblank)/(RLUDMSO−RLUblank)]×100%; (2) with curve fitting using the Excel add-on XLFit, the IC50 value was calculated.

[1] = LoVo cells, 96 hours, CellTiter-Glo

Row | IC50 [1] [nM] | SMILES | Max Inhibition [1] [%] | Emax [1] [%] | IC50 (LoVo, 96 h) [nM] | Emax (LoVo, 96 h) [%]
1 | 430 | C[C@@H]1COCCN1c1cc(-c2cncc3[nH]ccc23)nc2c1ccn2S(C)(=O)=O [Compound 3, (R)-3-methyl-4-(1-(methylsulfonyl)-6-(1H-pyrrolo[2,3-c]pyridin-4-yl)-1H-pyrrolo[2,3-b]pyridin-4-yl)morpholine] | 93 |  |  | 
2 | 340 | COc1cc(-c2nc(N3CCOC[C@H]3C)c3ccn(S(C)(=O)=O)c3n2)c2cc[nH]c2c1 [Compound 32, (R)-4-(2-(6-methoxy-1H-indol-4-yl)-7-(methylsulfonyl)-7H-pyrrolo[2,3-d]pyrimidin-4-yl)-3-methylmorpholine] | 95 |  |  | 
3 | 290 | CCS(=O)(=O)n1ccc2c(N3CCOC[C@H]3C)nc(-c3ccnc4[nH]ccc34)nc21 [Compound 33, (R)-4-(7-(ethylsulfonyl)-2-(1H-pyrrolo[2,3-b]pyridin-4-yl)-7H-pyrrolo[2,3-d]pyrimidin-4-yl)-3-methylmorpholine] | 92 |  |  | 
4 | 380 | Cc1cc(-c2nc(N3CCOC[C@H]3C)c3ccn(S(C)(=O)=O)c3n2)c2cc[nH]c2c1 [Compound 29, (R)-3-methyl-4-(2-(6-methyl-1H-indol-4-yl)-7-(methylsulfonyl)-7H-pyrrolo[2,3-d]pyrimidin-4-yl)morpholine] | 94 |  |  | 
5 | 70 | C[C@@H]1COCCN1c1nc(-c2cncc3[nH]ccc23)nc2c1ccn2S(C)(=O)=O [Compound 19, (R)-3-methyl-4-(7-(methylsulfonyl)-2-(1H-pyrrolo[2,3-c]pyridin-4-yl)-7H-pyrrolo[2,3-d]pyrimidin-4-yl)morpholine] | 90 |  |  | 
6 | 250 | C[C@@H]1COCCN1c1nc(-c2cccc3[nH]ccc23)nc2c1ccn2S(C)(=O)=O [Compound 18, (R)-4-(2-(1H-indol-4-yl)-7-(methylsulfonyl)-7H-pyrrolo[2,3-d]pyrimidin-4-yl)-3-methylmorpholine] | 92 |  |  | 
7 | 1270 | C[C@@H]1COCCN1c1cc(-c2ccnc3[nH]ccc23)nc2c1ccn2S(=O)(=O)C1CC1 [Compound 15, (R)-4-(1′-(cyclopropylsulfonyl)-1H,1′H-[4,6′-dipyrrolo[2,3-b]pyridin]-4′-yl)-3-methylmorpholine] |  | 94 |  | 
8 | 490 | C[C@@H]1COCCN1c1nc(-c2cc(F)cc3[nH]ccc23)nc2c1ccn2S(C)(=O)=O [Compound 20, (R)-4-(2-(6-fluoro-1H-indol-4-yl)-7-(methylsulfonyl)-7H-pyrrolo[2,3-d]pyrimidin-4-yl)-3-methylmorpholine] | 91 |  |  | 
9 | 1060 | C[C@@H]1COCCN1c1nc(-c2cc(C#N)cc3[nH]ccc23)nc2c1ccn2S(C)(=O)=O [Compound 30, (R)-4-(4-(3-methylmorpholinyl)-7-(methylsulfonyl)-7H-pyrrolo[2,3-d]pyrimidin-2-yl)-1H-indol-6-carbonitrile] |  | 93 |  | 
10 | 2340 | C[C@@H]1COCCN1c1cc(-c2ccnc3[nH]ccc23)nc2c1ccn2CS(C)(=O)=O [Compound 4′, reference compound] |  |  |  | 
11 | 1880 | CC(n1ccc2c(N3CCOC[C@H]3C)cc(-c3ccnc4[nH]ccc34)nc21)S(C)(=O)=O (stereo partly shown) [Compound 5′, reference compound] |  |  |  | 
12 | 240 | C[C@@H]1COCCN1c1nc(-c2cncc3[nH]ccc23)cc2c1ncn2S(C)(=O)=O [Compound 25, (R)-3-methyl-4-(1-(methylsulfonyl)-6-(1H-pyrrolo[2,3-c]pyridin-4-yl)-1H-imidazo[4,5-c]pyridin-4-yl)morpholine] | 89 |  |  | 
13 | 1040 | C[C@@H]1COCCN1c1nc(-c2ccnc3[nH]ccc23)nc2c1ncn2S(C)(=O)=O [Compound 22, (R)-3-methyl-4-(9-(methylsulfonyl)-2-(1H-pyrrolo[2,3-b]pyridin-4-yl)-9H-purin-6-yl)morpholine] | 93 |  |  | 
14 | 740 | C[C@@H]1COCCN1c1nc(-c2ccnc3[nH]ccc23)cc2c1ccn2S(C)(=O)=O [Compound 26, (R)-3-methyl-4-(1-(methylsulfonyl)-6-(1H-pyrrolo[2,3-b]pyridin-4-yl)-1H-pyrrolo[3,2-c]pyridin-4-yl)morpholine] | 92 |  |  | 
15 | 620 | C[C@@H]1COCCN1c1nc(-c2nc3ccccc3[nH]2)nc2c1ccn2S(C)(=O)=O [Compound 27, (R)-4-(2-(1H-benzo[d]imidazol-2-yl)-7-(methylsulfonyl)-7H-pyrrolo[2,3-d]pyrimidin-4-yl)-3-methylmorpholine] | 94 |  |  | 
16 |  | C[C@@H]1COCCN1c1nc(-c2ccnc3[nH]ccc23)nc2c1ccn2S(=O)(=O)N(C)C [Compound 34, (R)—N,N-dimethyl-4-(3-methylmorpholinyl)-2-(1H-pyrrolo[2,3-b]pyridin-4-yl)-7H-pyrrolo[2,3-d]pyrimidine-7-sulfamide] |  |  | 290 | 93
17 | 170 | C[C@@H]1COCCN1c1nc(-c2ccnc3[nH]ccc23)nc2c1ccn2S(C)(=O)=O [Compound 17, (R)-3-methyl-4-(7-(methylsulfonyl)-2-(1H-pyrrolo[2,3-b]pyridin-4-yl)-7H-pyrrolo[2,3-d]pyrimidin-4-yl)morpholine] | 93 |  |  | 
18 | 1020 | C[C@@H]1COCCN1c1cc(-c2ccnc3[nH]ccc23)nc2c1ncn2S(C)(=O)=O [Compound 24, (R)-3-methyl-4-(3-(methylsulfonyl)-5-(1H-pyrrolo[2,3-b]pyridin-4-yl)-3H-imidazo[4,5-b]pyridin-7-yl)morpholine] | 92 |  |  | 
19 | 2130 | CC(C)S(=O)(=O)n1ccc2c(N3CCOC[C@H]3C)cc(-c3ccnc4[nH]ccc34)nc21 [Compound 14, (R)-4-(1′-(isopropylsulfonyl)-1H,1′H-[4,6′-dipyrrolo[2,3-b]pyridin]-4′-yl)-3-methylmorpholine] |  | 93 |  | 
20 |  | C[C@@H]1COCCN1c1nc(-c2ccnc3[nH]ccc23)nc2c1cnn2S(C)(=O)=O [Compound 23, (R)-3-methyl-4-(1-(methylsulfonyl)-6-(1H-pyrrolo[2,3-b]pyridin-4-yl)-1H-pyrazolo[3,4-d]pyrimidin-4-yl)morpholine] | 92 |  |  | 
21 | 710 | C[C@@H]1COCCN1c1nc(-c2ccnc3[nH]ccc23)nc2c1ccn2S(=O)(=O)CCO [Compound 21, (R)-2-((4-(3-methylmorpholinyl)-2-(1H-pyrrolo[2,3-b]pyridin-4-yl)-7H-pyrrolo[2,3-d]pyrimidin-7-yl)sulfonyl)ethanol] |  | 92 |  | 
22 | 570 | C[C@@H]1COCCN1c1nc(-c2cc(Cl)cc3[nH]ccc23)nc2c1ccn2S(C)(=O)=O [Compound 31, (R)-4-(2-(6-chloro-1H-indol-4-yl)-7-(methylsulfonyl)-7H-pyrrolo[2,3-d]pyrimidin-4-yl)-3-methylmorpholine] | 93 |  |  | 
23 | 420 | C[C@@H]1COCCN1c1cc(-c2cc(F)cc3[nH]ccc23)nc2c1ccn2S(C)(=O)=O [Compound 7, (R)-4-(6-(6-fluoro-1H-indol-4-yl)-1-(methylsulfonyl)-1H-pyrrolo[2,3-b]pyridin-4-yl)-3-methylmorpholine] | 95 |  |  | 
24 | 100 | CNc1nc2ccccc2n1-c1nc(N2CCOC[C@H]2C)c2ccn(S(C)(=O)=O)c2n1 [Compound 28, (R)—N-methyl-1-(4-(3-methylmorpholinyl)-7-(methylsulfonyl)-7H-pyrrolo[2,3-d]pyrimidin-2-yl)-1H-benzo[d]imidazol-2-amine] |  | 92 |  | 
25 | 500 | C[C@@H]1COCCN1c1cc(-c2cccc3[nH]ccc23)nc2c1ccn2S(C)(=O)=O [Compound 2, (R)-4-(6-(1H-indol-4-yl)-1-(methylsulfonyl)-1H-pyrrolo[2,3-b]pyridin-4-yl)-3-methylmorpholine] | 94 |  |  | 
26 | 1820 | C[C@@H]1COCCN1c1cc(-c2ccnc3[nH]ccc23)nc2c1ccn2S(=O)(=O)N(C)C [Compound 16, (R)—N,N-dimethyl-4′-(3-methylmorpholinyl)-1H,1′H-[4,6′-dipyrrolo[2,3-b]pyridine]-1′-sulfamide] |  | 93 |  | 
